# Assay results published in patent US7867979B2, “Drug composition for treating 2 type diabetes and diabetic chronicity complications” (Hainan Deze Drug Research Co., Ltd., priority 2006, dated 2011).
# Like-named read-outs stand apart in the source and are kept apart here.
# Assays:
# [1] = Pharmacokinetics of the composition after oral administration; format: in vivo; conditions: rats, serum; for AUC(0-inf) / Cmax: rat
# Experimental: Mangiferin is suspended in 1% carboxymethyl cellulose sodium solution, the concentration of mangiferin is 25 mg/mL (Sample A).
# Berberine is suspended in 1% carboxymethyl cellulose sodium solution, the concentration of berberine is 25 mg/mL (Sample B). The composition which is composed of mangiferin and berberine in the ratio of 1:4 is suspended in 1% carboxymethyl cellulose sodium solution, the concentration of the composition is 50 mg/mL (Sample C).
# All rats were fasted for 16 hours and drunk water freely. The rats are oral administrated respectively sample A (40 mg/kg), sample B (160 mg/kg) and sample C (200 mg/kg). From the rats, 0.4 ml blood samples were taken respectively at the time of 5 minutes before oral administrated and 0 h, 1 h, 2 h, 3 h, 4 h, 5 h, 6 h, 8 h, 10 h, 12 h, 15 h, and 24 h after oral administrated. These blood samples were put into centrifuge tube containing heparin, then were centrifuged for 10 minutes, the serum is obtained.
# Serum samples are taken accurately 100 μL into centrifuge tubes, then 400 μL acetonitrile-acetic acid (9:1) is added into centrifuge tubes. The samples are whorled for 1.5 minutes, and then the samples are centrifuged 3000 r/min for 10 minutes. The supernatant was put into clear tube, dried by nitrogen, 100 μL mobile phase were put into the remnants, whorled for 1.5 minutes, then centrifuged 3000 r/min for 10 minutes. The Supernatant was put into sample bottle. All the samples are determined by HPLC. Injection volume is 20 μL.
# 4.1 Apparatus: Angilent 1100 HPLC (American Agilent Co.): include G1312A dual pump and G1313A Auto-Sampler.
# Chromatographic column: discover ODS column (250 mm×6 mm, 5 μm);
# The mobile phase: methanol-0.1% H3PO4 water.
# Velocity of flow: 1.0 ml/min.
# Detection Wavelength: 264 nm.
# [2] = test system: diabetic GK rats; test: Blood glucose and lipid in GK rats; format: in vivo, Goto-Kakizaki rats (GK); conditions: oral daily 12 weeks; for GLU / Lipid TC / Lipid TG: GK rats, high fat diet
# Excerpt: The GK (Goto-Kakizaki) rat is the spontaneous model of diabetes, the pathogenesis of GK rat is very similar to the pathogenesis of type 2 diabetes. After diabetes attack, hyperglycemia and insulin secretion weakened emerge rapidly, the latter diseases may be complicated by retinopathy, micro-vascular disease, neuropathy, nephropathy in GK rat. The GK rats have been widely used in type 2 diabetes study, so we choose GK rat as the animal model of the following experiment. […] Then they can be mixed or diluted in accordance with the dose and the ratio. 1.3 Goto-Kakizaki rats (GK) (4 months age, ♀♂) and Wistar rats (SPF level, ♀♂) were purchased from Shanghai SLAC laboratory animal Co., Ltd. In addition to the normal rats, the other rats were fed with high fat diet (20% protein and 3.5% cholesterol). After the rats was feeding adaptation for one week, The GK rats which the blood glucose level was more than 11.1 mmol/L were selected, and then divided into the following groups random: GK rats control group (n=10); mangiferin groups (10, 30, 200 mg/kg, each group 10 rats); berberine groups (10, 20, 150 mg/kg, each group 10 rats); composition group 1[[mangiferin (10 mg/kg)+berberine (10 mg/kg)], 10 rats]; composition group 2[[mangiferin (200 mg/kg)+berberine (150 mg/kg)], 10 rats]. Wistar rats are normal control group (10 rats). GK rats control group and Wistar rats group were given saline. The other groups were given test drugs. Test samples were administrated orally at the same time every day for 12 weeks. 3.1 Blood Glucose and lipid: The blood specimens were taken at the end of the test. Plasma glucose (GLU), triglycerides (TG), total cholesterol (TC) were determined by HITACHI7080 automatic biochemistry analyzer. […] The results have been calculated as mean±SD ( x±SD) and the comparisons of the data have been done by t-test. […] Mangiferin and berberine are prepared in accordance with the method of preparation of example 1 and 2. Then they can be mixed in accordance with the dose and the ratio such as table 3. 1.2 Animal: Goto-Kakizaki rats (GK) (4 months age, ♀♂) and Wistar rats (SPF level, ♀♂) were purchased from Shanghai SLAC laboratory animal Co., Ltd. In addition to the normal rats, the other rats were fed with high fat diet (20% protein and 3.5% cholesterol). After the rats was feeding adaptation for one week, GK rats that the blood glucose level of the GK rats was more than 11.1 mmol/L were selected, and then random divided into the following groups as follows (Table 3): There are ten rats in every group. GK rats control group and wistar rats group were given saline. The other groups were given test drugs. Test samples were administrated orally at the same time every day for 12 weeks. The measurements are as same as the above experiment.
# [3] = test system: Superoxidedismutase (SOD); test: Superoxidedismutase (SOD) in kidney tissue homogenate of GK rats; format: in vivo, Goto-Kakizaki rats (GK); conditions: oral daily 12 weeks
# Experimental: GK rats control group (n=10); mangiferin groups (10, 30, 200 mg/kg, each group 10 rats); berberine groups (10, 20, 150 mg/kg, each group 10 rats); composition group 1[[mangiferin (10 mg/kg)+berberine (10 mg/kg)], 10 rats]; composition group 2[[mangiferin (200 mg/kg)+berberine (150 mg/kg)], 10 rats]. Wistar rats are normal control group (10 rats). GK rats control group and Wistar rats group were given saline. The other groups were given test drugs. Test samples were administrated orally at the same time every day for 12 weeks. 3.3.1 Preparation of tissue homogenate: Rats were killed by femoral artery bloodletting after administration of the rats for 12-weeks. Kidney tissue of the rats were taken, the blood of kidney tissue were washed with cooling saline (4° C.), then the remnant water was absorbed with filter paper, the kidney tissue was weighed. Per gram kidney tissue was added into 10 ml saline, which was put in homogenized machine (10,000 r/min, 10 seconds, 3rd), 10% tissue homogenate was prepared, the tissue homogenate was centrifuged (4000 r/min) for 10 minutes to get supernatant, the supernatant was saved in −20° C. for determination. […] SOD is determined by Xanthine Oxidase calorimetric analysis, the test box was bought from Nanjing Jiancheng Bioengineering Research Institute. […] The results have been calculated as mean±SD ( x±SD) and the comparisons of the data have been done by t-test. There are ten rats in every group. GK rats control group and wistar rats group were given saline. The other groups were given test drugs. Test samples were administrated orally at the same time every day for 12 weeks. The measurements are as same as the above experiment.
# [4] = 30 mg/kg mangiferin, 20 mg/kg berberine
smiles,measurement,setting,value
COc1ccc2cc3[n+](cc2c1OC)CCc1cc2c(cc1-3)OCO2 [Berberine],AUC(0-inf),"[1]; sample B 160 mg/kg or sample C (1:4) 200 mg/kg, read-out: AUC0-∞ of berberine",3440 ± 250 µg·h/mL
same,Cmax,"[1]; sample B 160 mg/kg or sample C (1:4) 200 mg/kg, read-out: Cmax of berberine",54100 ± 2600 ng/mL
same,T1/2β of berberine,[1]; sample B 160 mg/kg or sample C (1:4) 200 mg/kg,3.5 ± 0.3 h
same,"Improvement of GLU, TC, TG, AR, MDA, SOD in diabetic GK rats",[2]; 10 mg/kg,do not significantly improve
same,"Improvement of GLU, TC, TG, AR, MDA, SOD in diabetic GK rats",[2]; [4],improves
same,GLU,[2]; 10 mg/kg,21.24 ± 3.13 mmol/L
same,Lipid TC,[2]; 10 mg/kg,4.53 ± 1.28 mmol/L
same,Lipid TG,[2]; 10 mg/kg,3.49 ± 0.68 mmol/L
same,GLU,[2]; 20 mg/kg,12.29 ± 2.76 mmol/L
same,Lipid TC,[2]; 20 mg/kg,3.27 ± 0.24 mmol/L
same,Lipid TG,[2]; 20 mg/kg,2.79 ± 0.24 mmol/L
same,GLU,[2]; 150 mg/kg,9.11 ± 2.08 mmol/L
same,Lipid TC,[2]; 150 mg/kg,3.01 ± 0.28 mmol/L
same,Lipid TG,[2]; 150 mg/kg,1.80 ± 0.19 mmol/L
same,Measurements about oxidation SOD,[3]; 10 mg/kg,131.56 ± 23.49 U/mg pro
same,Measurements about oxidation SOD,[3]; 20 mg/kg,170.04 ± 13.49 U/mg pro
same,Measurements about oxidation SOD,[3]; 150 mg/kg,195.10 ± 13.71 U/mg pro
O=c1c2cc(O)c(O)cc2oc2cc(O)c([C@@H]3O[C@H](CO)[C@@H](O)[C@H](O)[C@H]3O)c(O)c12 [Mangiferin],AUC(0-inf),"[1]; sample A 40 mg/kg or sample C (1:4) 200 mg/kg, read-out: AUC0-∞ of mangiferin",1200 ± 391 µg·h/mL
same,Cmax,"[1]; sample A 40 mg/kg or sample C (1:4) 200 mg/kg, read-out: Cmax of mangiferin",18600 ± 1500 ng/mL
same,T1/2β of mangiferin,[1]; sample A 40 mg/kg or sample C (1:4) 200 mg/kg,4.3 ± 0.4 h
same,"Improvement of GLU, TC, TG, AR, MDA, SOD in diabetic GK rats",[2]; 10 mg/kg,do not significantly improve
same,"Improvement of GLU, TC, TG, AR, MDA, SOD in diabetic GK rats",[2]; [4],improves
same,GLU,[2]; 10 mg/kg,20.75 ± 3.39 mmol/L
same,Lipid TC,[2]; 10 mg/kg,4.48 ± 1.53 mmol/L
same,Lipid TG,[2]; 10 mg/kg,3.62 ± 0.41 mmol/L
same,GLU,[2]; 30 mg/kg,13.05 ± 2.23 mmol/L
same,Lipid TC,[2]; 30 mg/kg,3.16 ± 0.32 mmol/L
same,Lipid TG,[2]; 30 mg/kg,2.82 ± 0.22 mmol/L
same,GLU,[2]; 200 mg/kg,9.05 ± 2.04 mmol/L
same,Lipid TC,[2]; 200 mg/kg,3.06 ± 0.29 mmol/L
same,Lipid TG,[2]; 200 mg/kg,1.82 ± 0.32 mmol/L
same,Measurements about oxidation SOD,[3]; 10 mg/kg,130.74 ± 23.47 U/mg pro
same,Measurements about oxidation SOD,[3]; 30 mg/kg,168.23 ± 13.46 U/mg pro
same,Measurements about oxidation SOD,[3]; 200 mg/kg,194.15 ± 13.55 U/mg pro
